Test [1] has as its target T1, aldosterone synthase (CYP11B2) (Macaca fascicularis, UniProt A0A2K5UPL9).
T1 construct: employ cynomolgus adrenal gland mitochondria as the source of aldosterone synthase (CYP11B2); from tissue; host or cells: cynomolgus monkey adrenal gland mitochondria
T1 sequence (A0A2K5UPL9 1-503): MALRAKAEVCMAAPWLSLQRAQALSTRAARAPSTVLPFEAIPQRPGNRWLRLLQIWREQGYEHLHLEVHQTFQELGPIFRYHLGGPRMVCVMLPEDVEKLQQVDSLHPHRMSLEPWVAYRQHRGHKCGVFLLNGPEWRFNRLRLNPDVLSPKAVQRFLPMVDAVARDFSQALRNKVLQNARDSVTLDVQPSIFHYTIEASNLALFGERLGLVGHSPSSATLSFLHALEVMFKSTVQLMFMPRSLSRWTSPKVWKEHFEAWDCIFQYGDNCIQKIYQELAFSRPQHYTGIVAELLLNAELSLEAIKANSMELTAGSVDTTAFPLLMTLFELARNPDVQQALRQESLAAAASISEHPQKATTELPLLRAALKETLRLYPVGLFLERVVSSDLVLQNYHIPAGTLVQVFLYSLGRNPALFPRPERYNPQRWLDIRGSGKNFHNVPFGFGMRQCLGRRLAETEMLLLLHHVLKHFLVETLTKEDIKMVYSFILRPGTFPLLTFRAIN
The test can be described thus: Inhibition of aldosterone synthase, cynomolgus adrenal mitochondria, aldosterone quantified by mass spectrometry. The format is biochemical, cynomolgus monkey. To be noted: 2 μM corticosterone, 90 minutes at 37° C. The procedure:
The aldosterone synthase and cortisol synthase inhibition assays employ cynomolgus adrenal gland mitochondria as the source of aldosterone synthase (CYP11B2) and cortisol synthase (CYP11B1). […] One unit of CYP11B2 and CYP11B1 activity in these preparations is defined as the amount of enzyme that generates 1 pmol of product in one hour under the conditions described.
The compounds of the invention may be evaluated for aldosterone synthase inhibition by the following assay:
Assays are performed in 96-well format in a final volume of 60 microL/well, containing 100 mM potassium phosphate, pH 7.4, 1% (v/v) DMSO, and additionally, 2 μM of corticosterone and 50 units of CYP11B2 activity. Reactions are started by the addition of NADPH to 1 mM and allowed to proceed for 90 minutes at 37° C. Reactions are terminated by the addition of 60 μL of MeCN containing an internal standard for mass spectrometry. One hundred microliters are then transferred to a glass filter plate and centrifuged at 570×g for 5 minutes and the filtrate is collected. Reaction product aldosterone is quantified by mass spectrometry. To determine the assay blank value (0% activity), NADPH is omitted from some reactions.
(§1) Dose dependent inhibition is quantified by the inclusion of compound at various concentrations. Maximum activity (100%) is defined by reactions containing NADPH, but without compound.

The target of test [2] is T2, rhCYP17A1 (Homo sapiens, UniProt P05093).
T2 construct: purchased Cypex
T2 sequence (P05093 1-508): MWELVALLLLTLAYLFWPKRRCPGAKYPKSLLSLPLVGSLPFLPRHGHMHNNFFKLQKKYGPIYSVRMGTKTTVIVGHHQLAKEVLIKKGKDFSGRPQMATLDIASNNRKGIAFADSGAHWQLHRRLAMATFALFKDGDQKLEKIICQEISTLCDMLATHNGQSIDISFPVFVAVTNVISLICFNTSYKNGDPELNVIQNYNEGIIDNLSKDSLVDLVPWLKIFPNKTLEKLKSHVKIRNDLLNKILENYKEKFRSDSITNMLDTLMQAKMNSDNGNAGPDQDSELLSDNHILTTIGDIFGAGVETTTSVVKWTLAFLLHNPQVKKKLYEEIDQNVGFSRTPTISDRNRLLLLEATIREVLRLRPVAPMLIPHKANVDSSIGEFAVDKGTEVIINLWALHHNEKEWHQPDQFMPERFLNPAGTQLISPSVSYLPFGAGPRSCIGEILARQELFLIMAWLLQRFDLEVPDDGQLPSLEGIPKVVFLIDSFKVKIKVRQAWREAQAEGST
Briefly: Inhibition of CYP17A1, progesterone to 17-α-hydroxyprogesterone, mass spectrometry. Format: biochemical. Conditions: rhCYP17A1, 150 nM progesterone, 15 minutes at 37° C.; read-out: CYP17A1 IC50. The procedure: Compounds of the invention may also be evaluated for inhibition of CYP17A1 via the following assay:
Reactions are started by the addition of NADPH to 1 mM and allowed to proceed for 15 minutes at 37° C. Reactions are terminated by the addition of 40 μL of MeCN containing an internal standard for mass spectrometry. The plates are centrifuged at 3000 rpm for 5 min and the reaction product 17-α-hydroxyprogesterone is quantified by mass spectrometry. To determine the assay blank value (0% activity), NADPH is omitted from some reactions.
as §1

The target of test [3] is T3, CYP19A1 (Homo sapiens, UniProt P11511).
T3 sequence (P11511 1-503): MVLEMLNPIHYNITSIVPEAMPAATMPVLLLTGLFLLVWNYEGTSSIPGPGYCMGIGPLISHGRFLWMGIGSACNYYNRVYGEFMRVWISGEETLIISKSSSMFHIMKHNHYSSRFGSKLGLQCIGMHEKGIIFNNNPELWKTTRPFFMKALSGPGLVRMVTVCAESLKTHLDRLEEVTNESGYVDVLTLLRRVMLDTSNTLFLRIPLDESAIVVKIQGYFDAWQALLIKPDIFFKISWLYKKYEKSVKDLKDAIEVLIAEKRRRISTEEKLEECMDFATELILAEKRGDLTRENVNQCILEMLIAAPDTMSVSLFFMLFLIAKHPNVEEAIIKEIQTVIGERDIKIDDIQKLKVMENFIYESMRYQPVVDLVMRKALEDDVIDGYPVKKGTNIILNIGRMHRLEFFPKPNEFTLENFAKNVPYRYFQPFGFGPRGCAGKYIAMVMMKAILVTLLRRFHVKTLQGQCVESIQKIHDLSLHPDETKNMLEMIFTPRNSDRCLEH
The test can be described thus: Inhibition of CYP19A1 (Kragie et al.). The format is biochemical. To be noted: read-out: CYP19A1 IC50.

Test [4] addresses cortisol synthase (CYP11B1) (Macaca fascicularis, UniProt A0A2K5ULY1). Briefly: Inhibition of cortisol synthesis, cynomolgus adrenal mitochondria, 11-deoxycortisol as substrate. Format: biochemical, cynomolgus monkey. Conditions: 150 units of CYP11B1, 11-deoxycortisol as substrate. The procedure: The aldosterone synthase and cortisol synthase inhibition assays employ cynomolgus adrenal gland mitochondria as the source of aldosterone synthase (CYP11B2) and cortisol synthase (CYP11B1). Mitochondria are prepared from frozen cynomolgus monkey adrenal glands according to Method A described in by J. D. McGarry et al. (Biochem. J., 1983, 214, 21-28), with a final resuspension in the AT buffer described in R. Yamaguchi et al. (Cell Death and Differentiation, 2007, 14, 616-624), frozen as aliquots in liquid nitrogen and stored at −80° C. until use. One unit of CYP11B2 and CYP11B1 activity in these preparations is defined as the amount of enzyme that generates 1 pmol of product in one hour under the conditions described.
Assays are performed as for aldosterone synthase except for the use of 150 units of CYP11B1, 11-deoxycortisol as substrate and cortisol measured as product.

The mark [5] stands for this setting: cynomolgus adrenal mitochondria, read-out: Cortisol Inhibition IC50.
The mark [6] stands for this setting: Cortisol Inhibition IC50, cynomolgus adrenal mitochondria.

Molecules are shown by their SMILES. Read-outs that look alike come from different tables or passages of the source.

One may read the IC50 as the midpoint of a concentration-inhibition curve. `CC1(C)Cc2ncn(-c3ccc(F)c(F)c3)c2C(=O)O1` [Compound 2, 3-(3,4-difluorophenyl)-6,6-dimethyl-3H,4H,6H,7H-pyrano[3,4-d]imidazol-4-one]: the IC50 in test [1] is 0.091 µM; in test [2] it was above 20 µM; in test [3], above 20 µM; in test [4] (setting [5]), 3.4 µM.
Turning to `CC1Cc2ncn(-c3ccc(C#N)cc3)c2C(=O)O1` (single isomer, unassigned) [Compound 16B, 4[6-methyl-4-oxo-3H,4H,6H,7H-pyrano[3,4-d]imidazol-3-yl]benzonitrile], the IC50 in test [1] was 0.16 µM; in test [2] it was above 20 µM; in test [3] it was above 20 µM; in test [4] (setting [5]) it was 35 µM.
`CC1(C)Cc2ncn(-c3ccc(C#N)cc3Cl)c2C(=O)O1` [Compound 18, 3-chloro-4-{6,6-dimethyl-4-oxo-3H,4H,6H,7H-pyrano[3,4-d]imidazol-3-yl}benzonitrile]: the IC50 is 0.017 µM in test [1], above 20 µM in test [2], above 20 µM in test [3] and 4.1 µM in test [4] (setting [5]).
Take `Cc1cc(-n2cnc3c2C(=O)OC(C)(CO)C3)ccc1C#N` (single isomer, unassigned) [Compound 39B, 4-[6-(hydroxymethyl)-6-methyl-4-oxo-3H,4H,6H,7H-pyrano[3,4-d]imidazol-3-yl]-2-methylbenzonitrile]: the IC50 is 0.013 µM in test [1], above 20 µM in test [2], above 20 µM in test [3] and 8.6 µM in test [4] (setting [6]).
In the case of `CC1(C)Cc2ncn(-c3cccc(Cl)c3F)c2C(=O)O1` [Compound 8, 3-(3-chloro-2-fluorophenyl)-6,6-dimethyl-3H,4H,6H,7H-pyrano[3,4-d]imidazol-4-one], the IC50 in test [1] was 0.035 µM; in test [2], above 20 µM; in test [3], above 20 µM; in test [4] (setting [5]), 5.3 µM.
For the molecule `CC1(C)Cc2ncn(-c3ccc(C#N)cc3F)c2C(=O)O1` [Compound 19, 4-{6,6-dimethyl-4-oxo-3H,4H,6H,7H-pyrano[3,4-d]imidazol-3-yl}-3-fluorobenzonitrile], the IC50 was 0.046 µM in test [1], above 20 µM in test [2], above 20 µM in test [3] and 7.1 µM in test [4] (setting [5]).
With `CC1(C(=O)O)Cc2ncn(-c3ccc(C#N)c(Cl)c3)c2C(=O)O1` (centres unmarked) [Compound 44, 3-(3-Chloro-4-cyano-phenyl)-6-methyl-4-oxo-3,4,6,7-tetrahydro-pyrano[3,4-d]imidazole-6-carboxylic acid], the IC50 in test [1] is 0.67 µM; in test [2] it was above 20 µM; in test [3], above 20 µM; in test [4] (setting [6]), above 30 µM.
With `CC1(CO)Cc2ncn(-c3ccc(Cl)c(Cl)c3)c2C(=O)O1` (single isomer, unassigned) [Compound 30B, 3-(3,4-dichlorophenyl)-6-(hydroxymethyl)-6-methyl-3H,4H,6H,7H-pyrano[3,4-d]imidazol-4-one], the IC50 in test [1] is 0.031 µM; in test [2], above 20 µM; in test [3] it was above 20 µM; in test [4] (setting [5]) it was 5.2 µM.
Turning to `CC1(C)Cc2ncn(-c3ccc(C#N)c(F)c3)c2C(=O)O1` [Compound 10, 4-{6,6-dimethyl-4-oxo-3H,4H,6H,7H-pyrano[3,4-d]imidazol-3-yl}-2-fluorobenzonitrile], the IC50 was 0.043 µM in test [1], above 20 µM in test [2], above 20 µM in test [3] and 4.2 µM in test [4] (setting [6]).
As for `Cc1cc(-n2cnc3c2C(=O)OC(C)(CO)C3)ccc1C#N` (single isomer, unassigned) [Compound 39A, 4-[6-(hydroxymethyl)-6-methyl-4-oxo-3H,4H,6H,7H-pyrano[3,4-d]imidazol-3-yl]-2-methylbenzonitrile], the half-maximal inhibitory concentration (IC50) in test [1] is 0.011 µM; in test [2], above 20 µM; in test [3], above 20 µM; in test [4] (setting [6]), 1.4 µM.
As for `CC1(C=O)Cc2ncn(-c3ccc(C#N)c(Cl)c3)c2C(=O)O1` (centres unmarked) [Compound 43, 2-Chloro-4-(6-formyl-6-methyl-4-oxo-6,7-dihydro-4H-pyrano[3,4-d]imidazol-3-yl)-benzonitrile], the IC50 was 0.54 µM in test [1], above 20 µM in test [2], above 20 µM in test [3] and above 30 µM in test [4] (setting [6]).
For `Cc1cc(C#N)ccc1-n1cnc2c1C(=O)OC(C)(C)C2` [Compound 13, 4-{6,6-dimethyl-4-oxo-3H,4H,6H,7H-pyrano[3,4-d]imidazol-3-yl}-3-methylbenzonitrile], the IC50 is 0.0063 µM in test [1], above 20 µM in test [2], above 20 µM in test [3] and 2.2 µM in test [4] (setting [6]).
`CC1(C)Cc2ncn(-c3ccc(Cl)cc3)c2C(=O)O1` [Compound 9, 3-(4-chlorophenyl)-6,6-dimethyl-3H,4H,6H,7H-pyrano[3,4-d]imidazol-4-one]: the IC50 in test [1] was 0.032 µM; in test [2], above 20 µM; in test [3] it was above 20 µM; in test [4] (setting [5]), 2.4 µM.
Regarding `CC1(CO)Cc2ncn(-c3cccc(Cl)c3F)c2C(=O)O1` (single isomer, unassigned) [Compound 35A, 3-(3-chloro-2-fluorophenyl)-6-(hydroxymethyl)-6-methyl-3H,4H,6H,7H-pyrano[3,4-d]imidazol-4-one], the IC50 was 0.07 µM in test [1], 15 µM in test [2], above 20 µM in test [3] and 24 µM in test [4] (setting [5]).

Source of the values: patent US9334285B2, “Aldosterone synthase inhibitors” (Boehringer Ingelheim International GmbH, priority 2014, dated 2016).
